In brackets after ≈: the same amount, converted by molar mass.
Columns and labels:
Type in all cases: functional
P388 [1] = test: Cytotoxicity against mouse P388 cells
P388 [2] = test: In vivo antitumor activity against mouse P388 cells at 46 to 185 ug/kg relative to control
P388 [3] = test: In vivo antitumor activity against mouse P388 cells assessed as cell life extension at 80 ug/kg

Row | Structure (SMILES) | ED50 (P388 [1]) | T/C (P388 [2]) | EC50 (P388 [1]; Mus musculus, P388, read-out: ED50 (the source's name)) | Activity (P388 [3])
1 | CCCC(=O)O[C@H]1C[C@H]2C[C@@H](O)CC(=O)O[C@@H]([C@@H](C)O)C[C@@H]3C/C(=C\C(=O)OC)[C@H](OC(C)=O)[C@@](O)(O3)C(C)(C)/C=C/[C@H]3C/C(=C\C(=O)OC)C[C@@H](C[C@](O)(O2)C1(C)C)O3 [BRYOSTATIN 6] | 1 ×10⁻⁵ ug/ml | 139% |  | 
2 | CCCC(=O)O[C@H]1/C(=C/C(=O)OC)C[C@H]2C[C@H]([C@@H](C)O)OC(=O)C[C@H](O)C[C@@H]3C[C@H](OC(C)=O)C(C)(C)[C@](O)(C[C@@H]4C/C(=C/C(=O)OC)C[C@H](/C=C/C(C)(C)[C@]1(O)O2)O4)O3 [BRYOSTATIN 9] |  |  | 1.2 ng/mL (≈ 1.41 nM) | 40%

Reference: ChEMBL document CHEMBL1149014, “Antineoplastic agents, 118. Isolation and structure of bryostatin 9” (1986)
